# Earlier results as cited in US20070104896A1, “Optical film, polarizing plate and image display device” (FUJIFILM Corporation, priority 2005, published 2007).
# Settings: pKa of a conjugated acid of the organic base; values in an aqueous solution
row,Compound,pKa
1,"Cc1ccc2ccc3ccc(C)nc3c2n1 [b-5, 2,9-Dimethyl-1,10-phenanthroline]",5.9
2,"CN1CCOCC1 [b-14, N-Methylmorpholine]",7.8
3,"Cc1ccnc2c1ccc1c(C)ccnc12 [b-6, 4,7-Dimethyl-1,10-phenanthroline]",5.9
4,"Cc1ccncc1 [b-8, 4-Methylpyridine]",6.1
5,"CCN1CCOCC1 [b-13, N-Ethylmorpholine]",7.7
6,"Cc1ccccn1 [b-7, 2-Methylpyridine]",6.1
7,"COCCNCCOC [b-15, Bis(2-methoxyethyl)amine]",8.9
8,"CN(C)CCO [b-17, N,N-Dimethyl-2-aminoethanol]",9.5
9,"Cc1ncc[nH]1 [b-12, 2-Methyl imidazole]",7.6
10,"CN(C)c1cccnc1 [b-9, 3-(N,N-Dimethylamino)pyridine]",6.5
11,"Cc1cccc(C)n1 [b-10, 2,6-Dimethylpyridine]",7.0
12,"CN(C)C [b-18, Trimethylamine]",9.9
